Where two headings read alike, the source gives them in different places.
Key:
[1] = target: hDOR (Homo sapiens, UniProt P41143); assay: Radioligand binding assay (Eurofins Cerep), [3H]DADLE displacement
[2] = Metabolic stability in rat liver microsomes; type: in vitro ADME; conditions: for RLM stability: rat liver microsomes 1 mg/ml, substrate 1 μM, NADPH, 37° C.
Protocol: In vitro metabolic stability of each compound was determined using rat liver microsomes in triplicate. Verapamil was used as a positive control to check the activity of the microsomes. The incubation mixtures consisted of rat liver microsomes (1 mg microsomal protein/ml), substrate (1 μM), and reduced NADPH (1 mM) in a total volume of 0.4 ml potassium phosphate buffer (50 mM, pH 7.4). Reactions were initiated with the addition of NADPH and kept in an incubator shaker at 37° C. Aliquots of 25 μl were withdrawn at 0, 5, 10, 15, 30, and 60 min and mixed with 125 μl of acetonitrile with formic acid (0.1% v/v) containing phenacetin (50 ng/ml; internal standard) for the termination of the reaction. The samples were then vortex mixed and filtered through a […] 96-well membrane filtration plate under centrifugation at speed of 2000×g for 5 min at 4° C. The filtrates were subjected to UPLC-mass spectrometry (MS/MS) analysis.
The intrinsic clearance of the compounds was calculated using a half-life employing the ‘substrate depletion’ approach. The apparent half-life was calculated from the pseudo-first-order rate constants obtained by linear regression of log (concentration) and time plots. The in vitro intrinsic clearance of IFN was estimated using the formula: […]
Where k is the slope of the line obtained by plotting the natural logarithmic of the percentage of parent remaining versus time and V is the volume of incubation.
The in vitro intrinsic clearance was scaled to whole-organ (hepatic) in vivo intrinsic CL (CLint,H) using the scaling factors available in the literature using equation (Mahmood I. Application of allometric principles for the prediction of pharmacokinetics in human and veterinary drug development. Advanced drug delivery reviews, 2007, 59(11), 1177-1192)
MPPGL represents the microsomal protein per gram of Sprague Dawley rat liver (45 mg/g) and liver weight per kg body weight was 40 g/kg.

[3] = target: T1, hMOR (Homo sapiens, UniProt P35372); assay: Cyclic adenosine 3′,5′-monophosphate (cAMP) assay in hMOR-CHO cells; type: cell-based; conditions: N=1, control agonist DAMGO
[4] = target: T2, α2C adrenergic receptor (Homo sapiens, UniProt P18825); assay: Radioligand binding assay (Eurofins Cerep), [3H]RX 821002 displacement; conditions: Table A1, data summary #1; read-out: Alpha2C Ki ± SEM
T2 construct: Eurofins Cerep (contract screening)
T2 sequence (P18825 1-462): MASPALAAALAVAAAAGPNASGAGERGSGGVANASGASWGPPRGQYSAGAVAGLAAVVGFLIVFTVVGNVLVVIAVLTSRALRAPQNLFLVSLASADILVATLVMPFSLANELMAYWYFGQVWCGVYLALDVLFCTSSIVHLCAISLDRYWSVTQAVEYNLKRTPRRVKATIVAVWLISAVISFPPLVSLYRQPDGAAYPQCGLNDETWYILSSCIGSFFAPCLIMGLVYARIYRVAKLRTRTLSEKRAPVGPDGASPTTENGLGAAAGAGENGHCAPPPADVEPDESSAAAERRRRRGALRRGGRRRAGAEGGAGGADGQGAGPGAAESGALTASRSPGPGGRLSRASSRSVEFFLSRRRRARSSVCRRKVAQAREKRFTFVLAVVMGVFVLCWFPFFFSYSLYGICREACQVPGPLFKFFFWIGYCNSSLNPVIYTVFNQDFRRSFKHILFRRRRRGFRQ

[5] = target: hKOR (Homo sapiens, UniProt P41145); assay: Radioligand binding assay (Eurofins Cerep), [3H]U69,593 displacement; conditions: read-out: KOR Ki ± SEM
[6] = target: T1, hMOR; assay: cell-based; parameters: expressed in transfected cells; conditions: for Emax: CHO
[7] = target: T3, α2A adrenergic receptor (Homo sapiens, UniProt P08913); assay: Radioligand binding assay (Eurofins Cerep), [3H]RX 821002 displacement
T3 construct: Eurofins Cerep (contract screening)
T3 sequence (P08913 1-465): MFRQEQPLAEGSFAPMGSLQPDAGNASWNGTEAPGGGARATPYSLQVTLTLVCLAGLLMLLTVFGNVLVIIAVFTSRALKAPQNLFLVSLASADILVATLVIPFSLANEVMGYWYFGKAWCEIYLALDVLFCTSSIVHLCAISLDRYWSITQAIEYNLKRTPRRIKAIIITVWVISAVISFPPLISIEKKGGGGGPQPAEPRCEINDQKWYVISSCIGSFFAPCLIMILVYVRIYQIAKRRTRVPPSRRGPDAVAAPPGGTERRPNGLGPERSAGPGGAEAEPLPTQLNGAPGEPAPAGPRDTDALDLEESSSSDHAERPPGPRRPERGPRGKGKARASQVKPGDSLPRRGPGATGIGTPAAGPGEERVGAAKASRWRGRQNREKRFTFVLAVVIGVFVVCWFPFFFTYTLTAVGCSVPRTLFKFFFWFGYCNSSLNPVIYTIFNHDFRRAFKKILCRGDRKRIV

[8] = target: T1, hMOR; assay: Radioligand binding assay (Eurofins Cerep), [3H]DAMGO displacement
[9] = DOR Ki ± SEM (nM), Table A1, data summary #1
[10] = DOR Ki ± SEM (nM), Table A4, data summary #2
[11] = Alpha2A Ki ± SEM (nM), Table A4, data summary #2
[12] = Table A4, data summary #2, read-out: MOR Ki ± SEM

Chain of hDOR (P41143 whole entry): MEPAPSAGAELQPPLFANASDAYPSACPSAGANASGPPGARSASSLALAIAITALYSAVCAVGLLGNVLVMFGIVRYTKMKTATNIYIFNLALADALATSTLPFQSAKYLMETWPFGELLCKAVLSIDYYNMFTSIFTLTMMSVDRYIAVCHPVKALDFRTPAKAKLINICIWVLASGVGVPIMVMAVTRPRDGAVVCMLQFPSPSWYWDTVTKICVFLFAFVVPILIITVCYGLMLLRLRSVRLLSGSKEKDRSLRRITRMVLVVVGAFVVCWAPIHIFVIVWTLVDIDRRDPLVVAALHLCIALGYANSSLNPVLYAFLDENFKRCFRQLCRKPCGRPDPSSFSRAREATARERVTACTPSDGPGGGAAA
Chain of hKOR (P41145 whole entry): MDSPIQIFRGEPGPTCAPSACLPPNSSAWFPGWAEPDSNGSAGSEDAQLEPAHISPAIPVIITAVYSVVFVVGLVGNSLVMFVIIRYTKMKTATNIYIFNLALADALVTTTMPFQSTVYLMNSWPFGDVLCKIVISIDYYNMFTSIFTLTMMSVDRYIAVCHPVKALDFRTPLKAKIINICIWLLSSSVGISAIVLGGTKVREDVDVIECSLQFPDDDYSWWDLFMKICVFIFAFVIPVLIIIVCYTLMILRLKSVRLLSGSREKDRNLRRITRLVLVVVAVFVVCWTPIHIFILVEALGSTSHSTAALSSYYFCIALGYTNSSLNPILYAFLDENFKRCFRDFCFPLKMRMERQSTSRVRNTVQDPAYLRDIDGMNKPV
T1 sequence (P35372 whole entry): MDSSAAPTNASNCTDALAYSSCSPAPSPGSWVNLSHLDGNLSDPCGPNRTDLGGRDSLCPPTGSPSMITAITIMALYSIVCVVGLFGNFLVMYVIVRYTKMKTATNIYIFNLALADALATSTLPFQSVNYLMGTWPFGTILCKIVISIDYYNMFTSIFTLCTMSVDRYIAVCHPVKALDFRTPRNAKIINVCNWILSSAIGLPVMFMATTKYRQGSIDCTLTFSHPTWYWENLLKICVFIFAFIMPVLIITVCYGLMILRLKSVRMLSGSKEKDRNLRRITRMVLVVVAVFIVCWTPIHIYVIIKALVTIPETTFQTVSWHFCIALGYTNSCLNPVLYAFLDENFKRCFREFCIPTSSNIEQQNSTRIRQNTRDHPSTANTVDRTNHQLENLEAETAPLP

Structure (SMILES) | Ki [1, 9] [nM] | Ki [1, 10] [nM] | RLM stability [2] [min] | functional activity in cAMP assay [3] | Ki ([5]; Table A1, data summary #1) [µM] | Ki ([5]; Table A4, data summary #2) [µM] | Ki [7, 11] [nM] | Ki [8, 12] [µM] | Ki ([8]; read-out: Ki at hMOR) [µM] | other results
CC[C@@H]1CN2CCc3c([nH]c4cccc(OC)c34)[C@@H]2C[C@@H]1/C(=C\OC)C(=O)N(C)C [SUSM-501, (E)-2-((2S,3S,12bS)-3-ethyl-8-methoxy-1,2,3,4,6,7,12,12b-octahydroindolo[2,3-a]quinolizin-2-yl)-3-methoxy-N,N-dimethylacrylamide] | 6490 ± 3030 | 6490 ± 3030 | 6 | partial agonist activity | 3.07 ± 0.569 | 3.07 ± 0.569 | 1810 ± 319 | 0.429 ± 0.0757 | – | Whole liver clearance, CL int, H ([2]; in vitro intrinsic clearance in RLM scaled to whole organ (rat)): 128.8 mL/min/kg; functional activity in cAMP assay ([3]; listed as SUSM 501): partial agonist; Ki [4]: 0.42 ± 0.113 µM; functional character at MOR [6]: partial antagonist; Emax ([6]; read-out: MOR Emax ± SEM (% DAMGO), Table A1, data summary #1): -4.05 ± 4.03%; Emax ([6]; read-out: Emax, functional activity at MOR): -4.05%; Ki ([7]; Alpha2A Ki ± SEM (nM), Table A1, data summary #1): 1810 ± 319 nM; Ki ([8]; Table A1, data summary #1, read-out: MOR Ki ± SEM): 0.429 ± 0.0757 µM
CC[C@@H]1CN2CCc3c([nH]c4cccc(OC)c34)[C@@H]2C[C@@H]1/C(=C\OC)C(=O)N(C)C1CCCCC1 [SUSM-523, (E)-N-cyclohexyl-2-((2S,3S,12bS)-3-ethyl-8-methoxy-1,2,3,4,6,7,12,12b-octahydroindolo[2,3-a]quinolizin-2-yl)-3-methoxy-N-methylacrylamide] | 6490 ± 962 | 8290 ± 1020 | <5 | antagonists | 2.64 ± 0.685 | 1.95 ± 0.611 | 187 ± 29 | 0.049 ± 0.014 | 0.0819 | functional activity in cAMP assay ([3]; listed as SUSM 523): antagonist
CC[C@@H]1CN2CC[C@@]3(O)C(=Nc4cccc(OC)c43)[C@@H]2C[C@@H]1/C(=C\OC)C(=O)N(C)C [SUSM-524, (E)-2-((2S,3S,7aS,12bS)-3-ethyl-7a-hydroxy-8-methoxy-1,2,3,4,6,7,7a,12b-octahydroindolo[2,3-a]quinolizin-2-yl)-3-methoxy-N,N-dimethylacrylamide] | – | – | <5 | agonist activity | 9.15 ± 1.1 | 9.15 ± 1.1 | – | 0.09 ± 0.014 | 0.11 | Ki ([1]; Table A4, data summary #2, read-out: DOR Ki ± SEM): 802 ± 212 nM; functional activity in cAMP assay ([3]; listed as SUSM 524): agonist; Ki ([7]; Table A4, data summary #2, read-out: Alpha2A Ki ± SEM): > 10000 nM; potency at MOR relative to SUSM-501 [8]: 4 fold

From patent US20260234147A1 (priority 2023, published 2026)
